{"source": "patent US8933229B2", "about": "“8-azabicyclo[3.2.1]octane-8-carboxamide derivative” (Sumitomo Dainippon Pharma Co., Ltd., priority 2009, dated 2015)", "data": [{"target": "T1, cortisone reductase of human adipose cell (11βHSD1) (Homo sapiens, UniProt P28845)", "T1 construct": "host or cells: normal human visceral preadipocytes (HPrAD-vis) differentiated into adipocytes", "T1 sequence (P28845 whole entry)": "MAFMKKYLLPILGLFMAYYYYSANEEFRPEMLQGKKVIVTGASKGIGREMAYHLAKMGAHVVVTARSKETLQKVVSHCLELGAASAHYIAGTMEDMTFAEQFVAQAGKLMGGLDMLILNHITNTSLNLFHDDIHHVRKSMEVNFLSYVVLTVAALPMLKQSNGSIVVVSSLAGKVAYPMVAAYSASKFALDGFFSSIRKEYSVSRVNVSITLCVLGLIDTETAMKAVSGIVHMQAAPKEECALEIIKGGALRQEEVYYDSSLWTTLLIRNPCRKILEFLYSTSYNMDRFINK", "experiment": "Inhibitory activity assay against cortisone reductase activity of cultured human adipocytes", "assay_type": "cell-based", "conditions": "differentiated normal human preadipocytes (HPrAD-vis), 100 nM [1,2-3H] cortisone, 37° C.", "description": "Normal human preadipocytes (HPrAD-vis, manufactured by Cambrex corporation) were inoculated onto a 48-well cell culture plate, and the differentiation induction was carried out according to Protocol attached to the kit. The medium for the cells on the 9-11 days of the differentiation was changed to D-MEM medium (0.2 ml; manufactured by GIBCO) containing 100 nM [1,2-^3H] cortisone (1 μCi/well, manufactured by Muromachi Yakuhin), 0.5% DMSO, a test compound (for test compound treated group, or DMSO only for the no-test compound treated group). The plate was incubated at 37° C. for 3 hours, and then the whole medium was collected. As a background group, the medium without cell was used. The medium was mixed with ethyl acetate (0.1 ml) in an Eppendorf tube. This mixture was voltexed, and then further centrifuged at 5,000 rpm for one minute at room temperature to separate the ethyl acetate layer (the upper layer). The ethyl acetate layer (10 μl) was spotted on an aluminium plate for thin layer chromatography (silica gel 60 angstrom, Merck & Co., Inc., hereinafter referred to as TLC plate). The developing solvent (chloroform/methanol (90:10, v/v)) was put into a sealed vessel, and the TLC plate was developed, and then dried at room temperature. An imaging plate (TR-2040, Fujifilm) was exposed onto the dried TLC plate for 16 hours or more. After the exposure was completed, the imaging plate was analyzed by Bioimage Analyzer (BAS2500, Fujifilm) and the [^3H] radioactivity on the part corresponding to the position of cortisol developed on the TLC plate. The inhibitory activity of a test compound against cortisone reductase was calculated according to the following equation. (inhibitory activity (%))=100×((group without test compound)−(group with test compound))/((group without test compound)−(background group))\nThe IC50 value was calculated by linear regression of logarithmic value of the concentration of test compound and the inhibitory activity value, using the data at 2 points showing around 50% of the inhibitory activity. […] The IC50 value of the following compounds of the present invention against cortisone reductase of human adipose cell was determined.", "units": {"IC50": "nM"}, "values": [{"smiles": "O=C(N[C@H]1C2CC3CC1C[C@](O)(C3)C2)N1[C@@H]2CC[C@H]1CC(COc1ccccc1)C2", "note": "(stereo partly drawn) [Example 314, (1R,5S)-N-[(E)-5-Hydroxyadamantan-2-yl]-3-(phenoxymethyl)-8-azabicyclo[3.2.1]octane-8-carboxyamide]", "IC50": 19}, {"smiles": "O=C(NC1C2CC3CC1CC(O)(C3)C2)N1C2CCC1CC(Oc1ncccc1C1CC1)C2", "note": "(centres unmarked) [Example 326]", "IC50": "< 3"}, {"smiles": "O=C1CCc2ccc(OC3CC4CCC(C3)N4C(=O)NC3C4CC5CC3CC(O)(C5)C4)cc21", "note": "(centres unmarked) [Example 390]", "IC50": 11}, {"smiles": "Cc1cnc(C)c(OC2CC3CCC(C2)N3C(=O)NC2C3CC4CC2CC(O)(C4)C3)n1", "note": "(centres unmarked) [Example 306]", "IC50": 6.3}, {"smiles": "O=C(NC1C2CC3CC1CC(O)(C3)C2)N1C2CCC1CC(Oc1ccc(F)cn1)C2", "note": "(centres unmarked) [Example 409]", "IC50": "< 3"}, {"smiles": "O=C(NC1C2CC3CC1CC(O)(C3)C2)N1C2CCC1CC(Oc1ncccc1C(F)F)C2", "note": "(centres unmarked) [Example 336]", "IC50": 8.4}, {"smiles": "O=C(NC1C2CC3CC1CC(O)(C3)C2)N1C2CCC1CC(Oc1cc(OC(F)F)ccn1)C2", "note": "(centres unmarked) [Example 339]", "IC50": "< 3"}, {"smiles": "Cc1cc(OC2CC3CCC(C2)N3C(=O)NC2C3CC4CC2CC(O)(C4)C3)ncc1F", "note": "(centres unmarked) [Example 404]", "IC50": "< 3"}, {"smiles": "COc1cccc(OC2CC3CCC(C2)N3C(=O)NC2C3CC4CC2CC(O)(C4)C3)c1Cl", "note": "(centres unmarked) [compound 192]", "IC50": "< 3"}, {"smiles": "O=C(NC1C2CC3CC1CC(O)(C3)C2)N1C2CCC1CC(Oc1cc(F)c(F)c(F)c1)C2", "note": "(centres unmarked) [Example 383]", "IC50": "< 3"}, {"smiles": "O=C(NC1C2CC3CC1CC(O)(C3)C2)N1C2CCC1CC(Oc1ccc(F)cn1)C2", "note": "(centres unmarked) [Example 413]", "IC50": "< 3"}, {"smiles": "Cc1ccnc(C2CC3CCC(C2)N3C(=O)NC2C3CC4CC2CC(O)(C4)C3)c1", "note": "(centres unmarked) [compound 241]", "IC50": "< 3"}, {"smiles": "O=C(NC1C2CC3CC1CC(O)(C3)C2)N1C2CCC1CC(Oc1ccc3c(c1)OC(F)(F)O3)C2", "note": "(centres unmarked) [Example 378]", "IC50": 14}, {"smiles": "O=C(N[C@H]1C2CC3CC1C[C@](O)(C3)C2)N1[C@@H]2CC[C@H]1C[C@H](Oc1ccccc1)C2", "note": "[compound 2]", "IC50": "< 1"}, {"smiles": "O=C(NC1C2CC3CC1CC(O)(C3)C2)N1C2CCC1CC(OC1CCN(c3ccc(F)cn3)CC1)C2", "note": "(centres unmarked) [Example 427]", "IC50": 15}, {"smiles": "O=C(NC1C2CC3CC1CC(O)(C3)C2)N1C2CCC1CC(Oc1cc(OCC(F)(F)F)ccn1)C2", "note": "(centres unmarked) [Example 373]", "IC50": 17}]}, {"target": "T2, cortisone reductase of mouse adipose cell (11βHSD1) (Mus musculus, UniProt P50172)", "T2 construct": "The medium of adipocytes which were differentiated and induced as mentioned above were replaced; endogenous in cells; host or cells: primary cells from visceral fat tissue of ICR male mice (Japan SLC), differentiated into adipocytes in culture", "T2 sequence (P50172 whole entry)": "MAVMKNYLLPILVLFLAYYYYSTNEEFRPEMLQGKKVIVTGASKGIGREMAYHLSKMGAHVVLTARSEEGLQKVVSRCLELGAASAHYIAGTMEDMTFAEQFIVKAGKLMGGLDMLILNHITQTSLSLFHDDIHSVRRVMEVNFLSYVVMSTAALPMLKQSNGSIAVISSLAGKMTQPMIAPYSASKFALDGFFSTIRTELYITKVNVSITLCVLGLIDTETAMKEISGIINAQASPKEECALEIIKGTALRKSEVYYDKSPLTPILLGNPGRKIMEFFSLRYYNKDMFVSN", "experiment": "Inhibitory activity assay against cortisone reductase of mouse primary adipocytes", "assay_type": "cell-based", "conditions": "differentiated ICR mouse visceral fat primary adipocytes, 100 nM [1,2-3H] cortisone, 37° C.", "description": "The adipose tissues adhered to the mesenterium and around the testicle of ten ICR male mice (9 to 11 weeks old, Japn SLC Inc.) (hereinafter, referred to as visceral fat tissue) were soaked in about 100 mL of a phospate buffer (0.20 g/L KCl, 0.20 g/L KH2PO4, 8.00 g/L NaCl, 2.16 g/L Na2HPO4.7H2O, 100 unit/ml penicillin (GIBCO), 100 μg/ml streptomycin (GIBCO), 250 ng/ml amphotericin (GIBCO)) and washed at room temperature.\nThe excised visceral fat tissues was cut finely in about 5×5 mm with scissors in Dulbecco's modified Eagle medium (about 50 ml, containing 4.5 g/L D-glucose and 584 mg/L L-glutamine, GIBCO) to which collagenase (Type II, Sigma), penicillin (GIBCO), streptomycin (GIBCO) and amphotericin (GIBCO) were added in an amount so that the final concentrations thereof are adjusted to 1 mg/ml, 100 unit/ml, 100 μg/ml and 250 ng/ml, respectively. Then, the mixture was shaken at 37° C. for 30 minutes (about 170 rpm), filtered through nylon mesh (80S [the pore size: 250 μm], SANSHIN INDUSTRIAL CO., LTD.), and the filtrate (cell suspension) was collected. This filtrate was centrifuged at 1800 rpm at room temperature for 5 minutes, and then, the liquid layer was removed stilly by decantation to give a precipate. This precipiate was suspended in Dulbecco's modified Eagle medium (30 ml, containing 4.5 g/L D-glucose and 584 mg/L L-glutamine, GIBCO; hereinafter, occasionally referred to as FBS-containing medium), to which fetal bovine serum (hereinafter referred to as FBS, GIBCO), ascorbic acid (Wako Pure Chemical Industries, Ltd.), penicillin (GIBCO), streptomycin (GIBCO) and amphotericin (GIBCO) are added thereto in an amount so that the final concentrations thereof were adjusted to 10%, 200 μM, 100 units/ml, 100 μg/ml and 250 ng/ml, respectively, and then the suspension was filtered through a nylon mesh (420S [pore size: 25 μm], SANSHIN INDUSTRIAL CO., LTD.). The filtrate was collected, and centrifuged at 1800 rpm at room temperature for 5 minutes. The liquid layer was removed stilly by decantation, and the precipitate was suspended again in the FBS-containing medium (30 ml). This suspension was treated by the same procedure (centrifugation, removal of liquid layer, suspension in FBS-containing medium) two times more, and the suspension (90 ml) was prepared. This suspension was put into cell culture flasks (T150, for adhered cell culture, Iwaki Glass) in a each volume of 30 ml, and incubated at 37° C. in the presence of 5% CO2. At 5 to 6 hours after starting incubation, the medium was removed, and the wall of the flask was washed with the above-mentioned phosphate buffer (15 ml). The washing liquid was removed, and the washing procedure was repeated again, and the phosphate buffer was removed. To the flask was added FBS-containing medium (30 ml), and the mixture was incubated at 37° C. under the presence of 5% CO2. On Day 1 or Day 2 after the culture started, the medium was removed, and the wall of the flask was washed with the phosphate buffer (15 ml) once. To the flask was added a trypsin-ethylenediamine tetraacetate (hereinafter, referred to as trypsin-EDTA) solution (0.05% trypsin, 0.53 mM EDTA 4Na, GIBCO) in such a volume that the cells are duly soaked, and the mixture was allowed to stand at 37° C. for 5 minutes. To this mixture was added the FBS-containing medium in about 10-times volume of that of the trypsin-EDTA solution, and then the cell suspension was obtained.\nThe cells in the cell suspension were counted with a counting chamber, and the cell suspension was diluted with the FBS-containing medium so that the concentration of the cell was adjusted to 1.4×10^5 cells/ml. Thus obtained cell dilution was put into a 48-well plate (for adherent cell culture, Iwaki Glass) in an amount of 300 μl per well, and the plate was incubated at 37° C. in the presence of 5% CO2 for 1 to 2 days. […]", "units": {"IC50": "nM"}, "values": [{"smiles": "O=C(NC1C2CC3CC1CC(O)(C3)C2)N1C2CCC1CC(Oc1cccc(COCC(F)(F)F)c1)C2", "note": "(centres unmarked) [Example 367]", "IC50": "< 3"}, {"smiles": "O=C(NC1C2CC3CC1CC(O)(C3)C2)N1C2CCC1CC(N1Cc3ccccc3C1)C2", "note": "(centres unmarked) [Example 431]", "IC50": 27}, {"smiles": "Cc1cccnc1OC1CC2CCC(C1)N2C(=O)NC1C2CC3CC1CC(O)(C3)C2", "note": "(centres unmarked) [Example 407]", "IC50": 4.1}, {"smiles": "CC(C)c1ccnc(OC2CC3CCC(C2)N3C(=O)NC2C3CC4CC2CC(O)(C4)C3)c1", "note": "(centres unmarked) [Example 309]", "IC50": 4.1}, {"smiles": "O=C(NC1C2CC3CC1CC(O)(C3)C2)N1C2CCC1CC(Oc1ncccc1F)C2", "note": "(centres unmarked) [Example 400]", "IC50": "< 3"}, {"smiles": "O=C(NC1C2CC3CC1CC(O)(C3)C2)N1C2CCC1CC(Oc1ncc(C(F)F)cc1Cl)C2", "note": "(centres unmarked) [Example 342]", "IC50": "< 3"}, {"smiles": "CCc1cccnc1OC1CC2CCC(C1)N2C(=O)NC1C2CC3CC1CC(O)(C3)C2", "note": "(centres unmarked) [Example 324]", "IC50": "< 3"}, {"smiles": "CC(=O)c1cccnc1OC1CC2CCC(C1)N2C(=O)NC1C2CC3CC1CC(O)(C3)C2", "note": "(centres unmarked) [Example 353]", "IC50": 7.9}, {"smiles": "COCc1cccc(OC2CC3CCC(C2)N3C(=O)NC2C3CC4CC2CC(O)(C4)C3)c1F", "note": "(centres unmarked) [Example 364]", "IC50": 7.7}, {"smiles": "O=C(NC1C2CC3CC1CC(O)(C3)C2)N1C2CCC1CC(Oc1cc(C(F)(F)F)ccn1)C2", "note": "(centres unmarked) [Example 307]", "IC50": "< 1"}, {"smiles": "Cc1cccc(N2CCC(OC3CC4CCC(C3)N4C(=O)NC3C4CC5CC3CC(O)(C5)C4)CC2)c1", "note": "(centres unmarked) [Example 423]", "IC50": "< 3"}, {"smiles": "O=C(NC1C2CC3CC1CC(O)(C3)C2)N1C2CCC1CC(Oc1cccc(Cl)n1)C2", "note": "(centres unmarked) [Example 311]", "IC50": 8.8}, {"smiles": "CN(c1ccccc1)C1CC2CCC(C1)N2C(=O)NC1C2CC3CC1CC(O)(C3)C2", "note": "(stereo not drawn) [Example 316, (3-Endo)-N-[(E)-5-hydroxyadamantan-2-yl]-3-[methyl(phenyl)amino]-8-azabicyclo-[3.2.1]octane-8-carboxamide]", "IC50": 18}]}]}
